Laboratory results published in patent US20240308987A1, “SMALL MOLECULE INHIBITOR AGAINST NASOPHARYNGEAL CARCINOMA, PREPARATION METHOD AND APPLICATION THEREOF” (SHENZHEN BAY LABORATORY, priority 2021, published 2024).

Test system: C666-1 cells
Assay: C666-1 Cell Viability Assay (Resazurin cytotoxicity test)
Assay type: cell-based
Conditions: Homo sapiens, C6661, EB virus-positive C666-1 cells, 72 hours treatment, 100-0.78 micromole/L, read-out: Inhibitory Rate
Procedure: In order to evaluate the inhibitory effect of the small molecular compound of the present disclosure on EBNA1 at the cellular level, a cytotoxicity test was performed.
As mentioned in the Background of the present disclosure, nasopharyngeal carcinoma is a kind of disease highly associated with latent infection of EB virus. EB virus in latent state only expresses limited proteins to maintain its genome replication, among which EBNA1 protein is an essential functional protein. Studies have confirmed that inhibition of EBNA1 can reduce the proliferation of the corresponding nasopharyngeal carcinoma cells or kill them. Therefore, EB virus-positive nasopharyngeal carcinoma tumor cells (C666-1 cells) are selected for test to verify the effect of the small molecular compound of the present disclosure.
During testing, 100 microliters of different cell lines were inoculated onto a transparent 96-well plate, and 5×10^3 cells were inoculated in each well for C666-1 cells. After the cells were cultured in an incubator under […] at 37° C. for 24 hours, 10 microliters of compound with a concentration ranging from 1 mmol/L to 7.8 micromol/L were added to each well (8 points, double dilution, the final concentration was 100-0.78 micromole/L), and treated in the incubator under carbon dioxide at 37° C. for 72 hours. Cell viability was assessed using the redox indicator Resazurin. After addition of 10 microliters of 600 micromole/liter Resazurin to each well and incubation at 37° C. for 3 hours. Using a Tecan microplate reader, the fluorescence signals were detected at an […]. A software was used to fit the inhibition curve and calculate half-maximal effect concentration (EC50). The selectivity of compound activity was assessed by comparing the EC50 values of EB virus-positive and EB virus-negative cell lines.

SMILES | EC50 [µM]
COC(=O)c1cccc(N2CC(Oc3ccc(COc4cccnc4)cc3)C2)c1-n1cccc1 [Example 1, methyl 3-(3-(4-((pyridin-3-yloxy)methyl)phenoxy)azetidin-1-yl)-2-(1H-pyrrol-1-yl) benzoate] | 1 to 10
O=C(O)c1cccc(N2CC(Oc3ccc(COc4cccnc4)cc3)C2)c1-n1cccc1 [Example 1a, 3-(3-(4-((pyridin-3-yloxy)methyl)phenoxy)azetidin-1-yl)-2-(1H-pyrrol-1-yl) benzoic acid] | 1 to 10
CCOC(=O)c1cccc(N2CC(Oc3ccc(COc4cccnc4)cc3)C2)c1-n1cccc1 [Example 1b, ethyl 3-(3-(4-((pyridin-3-yloxy)methyl)phenoxy)azetidin-1-yl)-2-(1H-pyrrol-1-yl) benzoate] | < 1
O=C(NO)c1cccc(N2CC(Oc3ccc(COc4cccnc4)cc3)C2)c1-n1cccc1 [Example 1c, N-hydroxy-3-(3-(4-((pyridin-3-yloxy)methyl)phenoxy)azetidin-1-yl)-2-(1H-pyrrole-1-yl) benzamide] | < 1
CNC(=O)c1cccc(N2CC(Oc3ccc(COc4cccnc4)cc3)C2)c1-n1cccc1 [Example 1d, N-methyl-3-(3-(4-((pyridin-3-yloxy)methyl)phenoxy)azetidin-1-yl)-2-(1H-pyrrol-1-yl) benzamide] | < 1
CN(C)C(=O)c1cccc(N2CC(Oc3ccc(COc4cccnc4)cc3)C2)c1-n1cccc1 [Example 1e, N,N-dimethyl-3-(3-(4-((pyridin-3-yloxy)methyl)phenoxy)azetidin-1-yl)-2-(1H-pyrrol-1-yl) benzamide] | 1 to 10
O=C(c1cccc(N2CC(Oc3ccc(COc4cccnc4)cc3)C2)c1-n1cccc1)N1CCCC1 [Example 1f, (3-(3-(4-((pyridin-3-yloxy)methyl)phenoxy)azetidin-1-yl)-2-(1H-pyrrol-1-yl)phenyl)(pyrrolidin-1-yl) methanone] | 1 to 10
c1cncc(OCc2ccc(OC3CN(c4ccccc4-n4cccc4)C3)cc2)c1 [Example 1g, 3-((4-((1-(2-(1H-pyrrole-1-yl)phenyl)azetidin-3-yl)oxy)benzyl)oxy) pyridine] | 10 to 50
COC(=O)c1cccc(N2CC(Oc3ccc(COc4cnccc4C)cc3)C2)c1-n1cccc1 [Example 2, methyl 3-(3-(4-((4-methylpyridin-3-yloxy)methyl)phenoxy)azetidin-1-yl)-2-(1H-pyrrol-1-yl) benzoate] | > 50
Cc1ccncc1OCc1ccc(OC2CN(c3cccc(C(=O)O)c3-n3cccc3)C2)cc1 [Example 2a, 3-(3-(4-((4-methylpyridin-3-yloxy)methyl)phenoxy)azetidin-1-yl)-2-(1H-pyrrol-1-yl) benzoic acid] | > 50
COC(=O)c1cccc(N2CC(Oc3ccc(COc4cncc(C)c4)cc3)C2)c1-n1cccc1 [Example 3, methyl 3-(3-(4-((5-methylpyridin-3-yloxy)methyl)phenoxy)azetidin-1-yl)-2-(1H-pyrrol-1-yl) benzoate] | > 50
Cc1cncc(OCc2ccc(OC3CN(c4cccc(C(=O)O)c4-n4cccc4)C3)cc2)c1 [Example 3a, 3-(3-(4-((5-methylpyridin-3-yloxy)methyl)phenoxy)azetidin-1-yl)-2-(1H-pyrrol-1-yl) benzoic acid] | > 50
COC(=O)c1cccc(N2CC(Oc3ccc(COc4ccc(OC)nc4)cc3)C2)c1-n1cccc1 [Example 4, methyl 3-(3-(4-(((6-methoxypyridin-3-yl)oxy)methyl)phenoxy)azetidin-1-yl)-2-(1H-pyrrol-1-yl) benzoate] | > 50
COc1ccc(OCc2ccc(OC3CN(c4cccc(C(=O)O)c4-n4cccc4)C3)cc2)cn1 [Example 4a, 3-(3-(4-(((6-methoxypyridin-3-yl)oxy)methyl)phenoxy)azetidin-1-yl)-2-(1H-pyrrol-1-yl) benzoic acid] | > 50
COC(=O)c1cccc(N2CC(Oc3ccc(COc4ccc(C)nc4)cc3)C2)c1-n1cccc1 [Example 5, methyl 3-(3-(4-((6-methylpyridin-3-yloxy)methyl)phenoxy)azetidin-1-yl)-2-(1H-pyrrol-1-yl) benzoate] | > 50
Cc1ccc(OCc2ccc(OC3CN(c4cccc(C(=O)O)c4-n4cccc4)C3)cc2)cn1 [Example 5a, 3-(3-(4-((6-methylpyridin-3-yloxy)methyl)phenoxy)azetidin-1-yl)-2-(1H-pyrrol-1-yl) benzoic acid] | > 50
COC(=O)c1cccc(N2CC(Oc3ccc(COc4cncc(OC)c4)cc3)C2)c1-n1cccc1 [Example 6, methyl 3-(3-(4-(((5-methoxypyridin-3-yl)oxy)methyl)phenoxy)azetidin-1-yl)-2-(1H-pyrrol-1-yl) benzoate] | > 50

SMILES | EC50 [µM]
COc1cncc(OCc2ccc(OC3CN(c4cccc(C(=O)O)c4-n4cccc4)C3)cc2)c1 [Example 6a, 3-(3-(4-(((5-methoxypyridin-3-yl)oxy)methyl)phenoxy)azetidin-1-yl)-2-(1H-pyrrol-1-yl) benzoic acid] | > 50
COC(=O)c1cccc(N2CC(Oc3ccc(N(C)C(=O)Nc4cccc(C#N)c4)cc3)C2)c1-n1cccc1 [Example 7, methyl 3-(3-(4-(3-(3-cyanophenyl)-1-methylureido)phenoxy)azetidin-1-yl)-2-(1H-pyrrol-1-yl) benzoate] | 10 to 50
CN(C(=O)Nc1cccc(C#N)c1)c1ccc(OC2CN(c3cccc(C(=O)O)c3-n3cccc3)C2)cc1 [Example 7a, 3-(3-(4-(3-(3-cyanophenyl)-1 - methylureido)phenoxy)azetidin-1-yl)-2-(1H-pyrrol-1-yl) benzoic acid] | 10 to 50
COC(=O)c1cccc(N2CC(Oc3ccc(COc4ccncc4)cc3)C2)c1-n1cccc1 [Example 8, methyl 3-(3-(4-((pyridin-4-yloxy)methyl)phenoxy)azetidin-1-yl)-2-(1H-pyrrol-1-yl) benzoate] | 10 to 50
O=C(O)c1cccc(N2CC(Oc3ccc(COc4ccncc4)cc3)C2)c1-n1cccc1 [Example 8a, 3-(3-(4-((pyridin-4-yloxy)methyl)phenoxy)azetidin-1-yl)-2-(1H-pyrrol-1-yl) benzoic acid] | > 50
COC(=O)c1cccc(N2CC(Oc3ccc(COc4cnc5ccccc5c4)cc3)C2)c1-n1cccc1 [Example 9, methyl 2-(1H-pyrrol-1-yl)-3-(3-(4-((quinolin-3-yloxy)methyl)phenoxy)azetidin-1-yl) benzoate] | > 50
O=C(O)c1cccc(N2CC(Oc3ccc(COc4cnc5ccccc5c4)cc3)C2)c1-n1cccc1 [Example 9a, 2-(1H-pyrrol-1-yl)-3-(3-(4-((quinolin-3-yloxy)methyl)phenoxy)azetidin-1-yl) benzoic acid] | > 50
COC(=O)c1cccc(N2CC(Oc3ccc(NC(=O)Nc4cccc(C(F)(F)F)c4)cc3)C2)c1-n1cccc1 [Example 10, methyl 2-(1H-pyrrol-1-yl)-3-(3-(4-(3-(3-(trifluoromethyl)phenyl)ureido)phenoxy)azetidin-1-yl) benzoate] | 10 to 50
O=C(Nc1ccc(OC2CN(c3cccc(C(=O)O)c3-n3cccc3)C2)cc1)Nc1cccc(C(F)(F)F)c1 [Example 10a, 2-(1H-pyrol-1-yl)-3-(3-(4-(3-(3-(trifluoromethyl)phenyl)ureido)phenoxy)azetidin-1-yl) benzoic acid] | 10 to 50
O=C(Nc1ccc(OC2CN(c3cccc(C(=O)NO)c3-n3cccc3)C2)cc1)Nc1cccc(C(F)(F)F)c1 [Example 10b, N-hydroxy-2-(1H-pyrrol-1-yl)-3-(3-(4-(3-(3-(trifluoromethyl)phenyl)ureido)phenoxy)azetidin-1-yl) benzamide] | 1 to 10
COC(=O)c1cccc(N2CC(Oc3ccc(COc4ncccn4)cc3)C2)c1-n1cccc1 [Example 11, methyl 3-(3-(4-((pyrimidin-2-yloxy)methyl)phenoxy)azetidin-1-yl)-2-(1H-pyrrol-1-yl) benzoate] | > 50
O=C(O)c1cccc(N2CC(Oc3ccc(COc4ncccn4)cc3)C2)c1-n1cccc1 [Example 11a, 3-(3-(4-((pyrimidin-2-yloxy)methyl)phenoxy)azetidin-1-yl)-2-(1H-pyrrol-1-yl) benzoic acid] | > 50
COC(=O)c1cccc(N2CC(Oc3ccc(COc4ccccn4)cc3)C2)c1-n1cccc1 [Example 12, methyl 3-(3-(4-((pyridin-2-yloxy)methyl)phenoxy)azetidin-1-yl)-2-(1H-pyrrol-1-yl) benzoate] | > 50
O=C(O)c1cccc(N2CC(Oc3ccc(COc4ccccn4)cc3)C2)c1-n1cccc1 [Example 12a, 3-(3-(4-((pyridin-2-yloxy)methyl)phenoxy)azetidin-1-yl)-2-(1H-pyrrol-1-yl) benzoic acid] | > 50
COC(=O)c1cccc(N2CC(Oc3ccc(COc4cnccn4)cc3)C2)c1-n1cccc1 [Example 13, methyl 3-(3-(4-((pyrazin-2-yloxy)methyl)phenoxy)azetidin-1-yl)-2-(1H-pyrrol-1-yl) benzoate] | > 50
O=C(O)c1cccc(N2CC(Oc3ccc(COc4cnccn4)cc3)C2)c1-n1cccc1 [Example 13a, 3-(3-(4-((pyrazin-2-yloxy)methyl)phenoxy)azetidin-1-yl)-2-(1H-pyrrol-1-yl) benzoic acid] | > 50
